The source of these data is patent US20250304587A1, “WEE1 INHIBITOR, PREPARATION THEREFOR AND USE THEREOF” (JIANGSU TASLY DIYI PHARMACEUTICAL CO., LTD., priority 2022, published 2025).

The test system of series [1] is HUVEC cells. As to the kind of experiment: Cell Titer-Glo anti-proliferation, normal cells HUVEC. Type of series: cell-based. The method, then: (§1) Compound solutions of different concentration gradients were prepared. […] The cell growth group without compound was used as a positive control (maximum signal control) and the medium was used as a negative control (minimum signal control), while ensuring that the final level of DMSO in each reaction well was 0.2%. After removing the medium from the 384-well plate, 25 μl of the configured compound at different concentrations was transferred into the well plate and the compound and cells were incubated in the cell incubator at 37° C. with 5% CO2 for 3 days.
(§2) The 384-well plates were removed from the cell incubator and allowed to equilibrate for 1 h to room temperature. 25 μl of Cell Titer-Glo assay was added to each well, lysed on a shaker for 2 min and then read out (Luminescence) using a BMG PHERAStar after 10 min incubation. Calculate the inhibition rate from the luminescence signal.
(§3) to calculate the rate of inhibition of the cells by different concentrations of the compounds. The IC50 of the compound on cell activity inhibition was calculated by fitting a log(inhibitor) vs. response-Variable slope model to GraphPad Prism 6. The fitted equation was: Y=Bottom+(Top-Bottom)/(1+10^((Log IC50−X)*HillSlope)), where Y represents the rate of inhibition and X represents the concentration of the known compound after Log.
(§4) B. Evaluation of the Anti-Proliferative Effect of Compounds by the Cell Titer-Glo Method on Normal Cells HUVEC and HK2.
(§5) The test method is the same as the anti-proliferative activity evaluation of tumor cells.
(ATP-based viability assays read luminescence as a measure of living cells.)

Series [2] concerns HT-29 cells. As to the kind of experiment: Cell Titer-Glo anti-proliferation, HT-29 cells. Type of series: cell-based, human. To be noted: 3 days, read-out: Anti-proliferative activity HT-29 (IC50 class). In short, it runs like this:
(§6)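 Each line was exposed to graded compound concentrations for 3 days at 37 °C, 5% CO2, with final DMSO at 0.2%. Viability was measured by Cell Titer-Glo luminescence, with untreated cells as the maximum and medium as the minimum signal. IC50 came from a variable-slope log(inhibitor)-response fit.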

Series [3] deals with HK2 cells. As to the kind of experiment: Cell Titer-Glo anti-proliferation, normal cells HK2. Type of series: cell-based. The method, then: as §1, §2, §3, §4, §5
The test system of series [4] is plasma protein. The series can be described thus: Plasma protein binding (equilibrium dialysis), mouse. To be noted: mouse plasma, 1 μM, 5 h dialysis. On the technique in general: Equilibrium dialysis compares concentrations on both sides of a semipermeable membrane.
Protocol: Sample preparation: The compound was dissolved in DMSO to a stock solution of 10 mM, then the compound was diluted with PBS to a secondary stock solution of 0.02 mM, and then the above 0.02 mM was diluted to 1 μM using blank plasma, which was the sample to be incubated.
Dialysis set-up preparation: 400 μL of blank PBS was first added to the white wells of the equilibrated dialysis plate and 200 μL of the configured plasma sample was added to the red wells, and the dialysis plate was sealed with a sealing film.
Recovery plate preparation: Two 96-well deep-well plates, labelled T0 and T5, were prepared and all plasma samples were added at n=2. 300 μL of acetonitrile (Verapamil-HCl, 4 ng/mL) was added directly to the TO plate, followed by 50 μL of blank PBS mix well for 5 min and left to stand in a 4° C. refrigerator until the end of the incubation.
Experimental Operation: The dialysis device and the T5 plate were incubated together for 5 h in a microplate thermostatic shaker (37° C., using 300 rpm or minimum speed). At the end of the incubation, 300 μL of acetonitrile (Verapamil-HCl, 4 ng/mL) was added and 50 μL of PBS solution was added. At the end of the dialysis incubation, a new 96-well deep well plate was taken. Add 50 μL of plasma well sample to the corresponding position of the 96-well plate, 300 μL of acetonitrile and 50 μL of blank PBS; take 50 μL of buffer well sample to the corresponding position of the 96-well plate, then add 300 μL of acetonitrile and 50 μL of blank plasma. Add 300 μL of acetonitrile (Verapamil-HCl, 4 ng/mL) to the plasma-containing wells of the T5 plate, and then 50 μL of PBS solution was added. Shake for 5 min to fully precipitate the proteins and centrifuge at 20,000 g for 10 min at 4° C. Add 200 μL of supernatant to 200 μL of pure water, mix well and perform LC-MS/MS analysis.
• Plasma protein binding rate=[(Rpe−Rb)/Rpe]×100% • Recovery=[(Rpe+Rb)/R5 h]×100% • Stability=(R5/R0)×100%
• Rpe=ratio of plasma-side testing sample peak area to internal standard • Rb=ratio of buffer side testing sample peak area to internal standard • R5=ratio of incubator stability sample peak area to internal standard • R0=ratio of refrigerator stability sample peak area to internal standard
The subject of series [5] is BxPC3 cells. The series can be described thus: Cell Titer-Glo anti-proliferation, BxPC3 cells. Type of series: cell-based, human. Conditions: 3 days, read-out: Anti-proliferative activity BxPC3 (IC50 class). The procedure, abridged: as §6
For series [6], the system named is OVCAR-3 cells. As to the kind of experiment: Cell Titer-Glo anti-proliferation, OVCAR-3 cells. Type of series: cell-based. To be noted: 3 days, read-out: Anti-proliferative activity OVCAR-3 (IC50 class). In short, it runs like this: as §6
A short description of series [7]: Metabolic stability in liver microsomes, monkey. Type of series: in vitro ADME. The method, then:
(§7) Microsomes were taken out from the −80° C. refrigerator, rapidly melted in a 37° C. water bath and placed on ice until ready to use. The test article was diluted with DMSO to prepare a 10 mM stock solution, and then diluted with acetonitrile to a 0.5 mM secondary stock solution. […] NADPH was diluted with Buffer C to a working solution of 6 mM for the starter solution. An acetonitrile solution containing an internal standard was prepared as the precipitant, and Verapamil-HCl was chosen as the internal standard at a concentration of 4 ng/ml. […] A separate plate with pointed bottom wells, noted as a precipitation plate, was added with 135 μL precipitant per well; 0 h samples were transferred to the plate after 10 min incubation and 15 μL of starter solution was added; the plate was placed on ice before centrifugation. The diluted starter solution was added in sufficient quantity to the dispensing plate to facilitate the multichannel pipette aspiration operation. The reaction was carried out on a warm incubation shaker and 15 μL of starter solution/sample is added to the plate using a multichannel pipette. The reaction was mixed with a slight shake to initiate the reaction, which was accurately timed and recorded using a timer; After the reaction time had elapsed, all the solution in the plate was aspirated using the multichannel pipette and added to the precipitation plate to terminate the reaction at that point in time. After all reactions had been terminated, the plates were shaken for ten minutes on a plate shaker at 600 rpm to precipitate the protein. The plate was centrifuged at 4° C. for 15 minutes at maximum rpm. 80 μL of supernatant was taken, 320 μL of pure water was added and mixed for LC-MS analysis.
On the technique in general: Liver microsomes are a subcellular fraction often used to study metabolism.

Series [8] is described as follows: Metabolic stability in liver microsomes, rat. Type of series: in vitro ADME. The method, then: as §7
Series [9] deals with hERG potassium channel (Homo sapiens (Human), UniProt Q12809). As to the kind of experiment: hERG potassium channel inhibition, patch clamp in CHO hERG cells.
Protocol: The cell line used for the patch clamp assay was a 10th generation CHO cell overexpressing hERG potassium channel cDNA. CHO hERG cells were cultured in Petri dishes or flasks at 37° C. in a 5% CO2 incubator. Cells were dropped onto circular slides 24-48 hours prior to electrophysiological experiments and cultured in cell culture medium and used for experiments after the cells had been adhered.
Cell culture medium (purchased from Invitrogen) Composition: • Ham's F12 medium • 10% (v/v) heat inactivated FBS • 100 μg/ml Hygromycin B (thaumatin) • 100 μg/ml Geneticin (Genomycin, G418)
Compound powders are dissolved in the extracellular solution and are subjected to a routine 5 to 10 minute sonication and shaking to ensure complete dissolution of the compound.
The final concentrations of compounds used for electrophysiological assays were 5, 20 μM and the final concentration of DMSO was 0.1%.
Cell membrane currents were recorded using a HEKA EPC-10 USB patch-clamp amplifier (HEKA Elektronik, Germany). • 1) A coverslip with a large number of uniformly growing individual CHO hERG cells on its surface was taken. Place in a continuous recording cell on an inverted microscope, perfused with extracellular fluid (approximately 1 ml per minute) and recorded continuously, waiting for the current to stabilize. • 2) Record HERG channel currents for individual cells using standard whole cell recording mode. The membrane voltage is first clamped at −80 mV and the cell is given a +20 mV stimulus for 5 s to activate the hERG potassium channel, then repolarized to −50 mV for 5 s to generate an outward tail current, which is continuously perfused until the current is stable, at which point the peak tail current is the control current value. • 3) The extracellular solution containing the drug to be tested was then perfused and recorded until the inhibitory effect of the drug on the hERG current reached a steady state, at which point the peak tail current was the post-drug current value. • 4) The cells are again perfused with the extracellular solution until the hERG current returns to or approaches the level prior to the addition of the drug, then the perfusion can be continued to test other concentrations or drugs. One or more compound or drug concentrations may be tested on each cell. • 5) Cisapride (C4740-10 mg, Sigma) is used as a positive control in the experiment to ensure that the cells used respond properly.
For series [10], the target named is Wee1 protein (Homo sapiens (Human), UniProt P30291). As to the kind of experiment: TR-FRET binding of compound to Wee1 protein and Tracer 178. Conditions: Tracer 178, read-out: IC50, inhibitory activity against Wee1 kinase. The method, then:
First, solutions of the compounds in different concentration gradients were prepared. The compounds were dissolved in DMSO and the compounds were diluted 4 folds with a total of 10 dose points and 2 parallel replicates for each concentration.
The IC50 for inhibition of enzyme activity by the compounds was then calculated using GraphPad Prism 6 and fitted with a log (inhibitor) vs. response-Variable slope mode. The fitting equation was: Y=Bottom+(Top−Bottom)/(1+10^((Log IC50−X)*HillSlope)), where Y represents the percentage of residual enzyme activity known and X represents the known concentration of compound after the logarithm.

Series [11] can be described thus: Metabolic stability in liver microsomes, dog. Type of series: in vitro ADME. As to the method:
as §7

In series [12] the test system is plasma protein. The series can be described thus: Plasma protein binding (equilibrium dialysis), rat. Conditions: 1 μM, 5 h dialysis. Type of series: in vitro ADME.
Series [13] is described as follows: Metabolic stability in liver microsomes, human. Type of series: in vitro ADME. As to the method: as §7, with “Test Example 3: Evaluation of the Metabolic Stability of Liver Microsomes (Mouse and Human) In Vitro Microsomes” for “Microsomes”
Series [14] has as its system Caco-2 cells. The series can be described thus: Membrane permeability in Caco-2 model. Type of series: in vitro ADME. To be noted: for Efflux Ration: Caco2; for Papp A to B / Papp B to A: Caco2, 10 μM, 90 min. The method, then:
(§8) Caco-2 cells were purchased from the American Model Tissue Cell Collection (Rockville, MD). The cell culture medium was modified Eagle's medium (MEM) containing 10% inactivated fetal bovine serum and 1% non-essential amino acids. […] The cells were incubated for 21-28 days after inoculation for transport experiments and the apparent permeability (Papp) of Lucifer Yellow was used to characterize and verify the compactness of the cell monolayer. […] After the incubation, dilute the samples on the apical side and basolateral side, and the concentrations of compounds on the apical and basolateral sides were detected by LC-MS/MS, and the concentrations of the compounds were quantified by standard curve.

Series [15] in a line: Metabolic stability in liver microsomes, mouse. Type of series: in vitro ADME. The method, then:
as §7, with “Test Example 3: Evaluation of the Metabolic Stability of Liver Microsomes (Mouse and Human) In Vitro Microsomes” for “Microsomes”

A short description of series [16]: Membrane permeability in Caco-2 model. Type of series: in vitro ADME. To be noted: human, Caco-2, pH 7.4. As to the method:
as §8

Chain of Wee1 protein (P30291 whole entry): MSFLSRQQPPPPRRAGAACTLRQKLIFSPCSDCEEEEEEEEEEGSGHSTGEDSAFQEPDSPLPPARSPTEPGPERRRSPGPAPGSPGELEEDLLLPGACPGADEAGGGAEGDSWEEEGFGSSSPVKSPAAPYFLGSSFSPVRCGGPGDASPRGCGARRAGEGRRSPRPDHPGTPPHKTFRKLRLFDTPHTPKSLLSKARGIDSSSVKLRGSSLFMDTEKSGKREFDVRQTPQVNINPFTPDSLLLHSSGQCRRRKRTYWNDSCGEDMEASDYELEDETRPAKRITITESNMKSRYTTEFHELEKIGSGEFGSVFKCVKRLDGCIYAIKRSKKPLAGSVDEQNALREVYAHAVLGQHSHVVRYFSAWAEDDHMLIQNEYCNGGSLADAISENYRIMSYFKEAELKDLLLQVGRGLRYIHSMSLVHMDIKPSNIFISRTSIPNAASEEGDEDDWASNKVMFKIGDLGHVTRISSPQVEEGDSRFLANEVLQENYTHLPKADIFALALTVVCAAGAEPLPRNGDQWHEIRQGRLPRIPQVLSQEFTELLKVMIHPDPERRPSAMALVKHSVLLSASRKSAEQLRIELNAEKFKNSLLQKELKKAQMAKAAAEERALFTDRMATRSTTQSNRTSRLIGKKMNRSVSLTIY
Chain of hERG potassium channel (Q12809 whole entry): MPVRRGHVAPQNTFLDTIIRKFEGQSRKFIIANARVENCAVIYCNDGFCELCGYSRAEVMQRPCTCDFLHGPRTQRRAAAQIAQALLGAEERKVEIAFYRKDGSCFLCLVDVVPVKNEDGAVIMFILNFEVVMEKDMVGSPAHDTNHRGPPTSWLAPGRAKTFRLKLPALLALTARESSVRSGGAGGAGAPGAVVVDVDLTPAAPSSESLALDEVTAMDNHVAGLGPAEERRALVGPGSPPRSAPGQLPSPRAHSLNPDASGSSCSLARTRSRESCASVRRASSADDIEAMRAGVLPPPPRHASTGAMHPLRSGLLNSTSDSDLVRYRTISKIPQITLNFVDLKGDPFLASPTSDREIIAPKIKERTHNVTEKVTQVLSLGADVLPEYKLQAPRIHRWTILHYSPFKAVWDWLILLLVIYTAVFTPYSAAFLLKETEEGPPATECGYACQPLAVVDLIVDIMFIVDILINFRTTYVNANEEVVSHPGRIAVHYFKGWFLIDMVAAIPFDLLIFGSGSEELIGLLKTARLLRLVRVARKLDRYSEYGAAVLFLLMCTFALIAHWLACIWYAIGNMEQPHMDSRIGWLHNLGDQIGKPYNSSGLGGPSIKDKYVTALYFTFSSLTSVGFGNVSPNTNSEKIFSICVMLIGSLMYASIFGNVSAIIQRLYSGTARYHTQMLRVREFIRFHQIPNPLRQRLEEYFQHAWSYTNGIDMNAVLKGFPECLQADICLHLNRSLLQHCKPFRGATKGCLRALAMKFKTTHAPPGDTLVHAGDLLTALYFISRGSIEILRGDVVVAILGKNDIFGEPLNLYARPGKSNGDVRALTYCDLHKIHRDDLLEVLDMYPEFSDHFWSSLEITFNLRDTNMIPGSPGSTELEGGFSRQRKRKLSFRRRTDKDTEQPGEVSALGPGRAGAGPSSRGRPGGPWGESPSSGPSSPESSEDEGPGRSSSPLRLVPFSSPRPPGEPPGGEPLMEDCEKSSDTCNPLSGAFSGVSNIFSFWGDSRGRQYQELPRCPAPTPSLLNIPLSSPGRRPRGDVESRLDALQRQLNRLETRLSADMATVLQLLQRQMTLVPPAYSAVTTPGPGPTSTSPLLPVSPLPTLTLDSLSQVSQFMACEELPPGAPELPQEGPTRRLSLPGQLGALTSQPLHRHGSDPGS

Consider `C=CCn1c(=O)c2cnc(Nc3ccc(N4CCC(N(C)C)CC4)c(C)c3)nc2n1-c1ccc2c(n1)C(C)(O)C1(CC1)C2` (racemic) [Compound 15], for which the IC50 in [1] was over 10000 nM; in series [2] it was 100 to 1000 nM; in [3] it was 760 nM; in [5] it was 100 to 1000 nM; in series [6], 100 to 1000 nM. Also, the “Plasma Protein binding (PPB) Mouse” value in [4] is 93.51%.
Consider `C=CCn1c(=O)c2cnc(Nc3ccc(N4CCN(C)CC4)cc3)nc2n1-c1ccc2c(n1)[C@H](O)C1(CC2)CC1` (single isomer, unassigned) [Compound 4b], for which the “T1/2 liver microsomes Monkey” value in series [7] is 22.84 min. Moreover, the IC50 was over 10000 nM in series [1]; 100 to 1000 nM in [2]; 1290 nM in [3]; at most 5 nM in [10]; 100 to 1000 nM in series [5]; 100 to 1000 nM in series [6]. Further, the “T1/2 liver microsomes Rat” value in series [8] is over 120 min. For the same molecule, the figures for the “hERG Inhibition” value in series [9] (test concentration 5 μM) and in series [9] (test concentration 20 μM) were 23.84 ± 4.39% and 42.42 ± 5.58%, respectively. Also, the “Plasma Protein binding (PPB) Mouse” value in series [4] is listed as 87.71%. For the same molecule, the “T1/2 liver microsomes Dog” value in series [11] is listed as 41.74 min. Also, the “Plasma Protein binding (PPB) Rat” value in [12] stood at 77.45%. Moreover, the “T1/2 liver microsomes Human” value in [13] is 44.82 min. In addition, the “Efflux Ration” value in series [14] amounted to 14.03. Besides, in series [14], the “Papp A to B” value was 0.94 10^−6 cm/s. Further, in series [14], the “Papp B to A” value is 13.19 10^−6 cm/s. Also, the “T1/2 liver microsomes Mouse” value in [15] is reported as 72.82 min.
In the case of `CC(C)NCC(O)COc1cccc2ccccc12` (stereo not shown) [Propranolol], in series [16] (Caco2, 10 μM, 90 min), the Papp A→B at 90 min, 10 µM is 14.7 ×10⁻⁶ cm/s and the Papp B→A at 90 min, 10 µM stood at 13 ×10⁻⁶ cm/s. In addition, the efflux ratio at 90 min, 10 µM in [16] (Caco2, read-out: Efflux Ration) amounted to 0.88.
With `C=CCn1c(=O)c2cnc(Nc3ccc(N4CCN(C)CC4)cc3)nc2n1-c1ccc2c(n1)C(O)(C(F)(F)F)C1(CC1)C2` (stereo not shown) [Compound 32], the IC50 is over 10000 nM in series [1]; 100 to 1000 nM in series [2]; 1140 nM in series [3]; 5 to 10 nM in series [10]; 1000 to 2000 nM in [5]; 1000 to 2000 nM in series [6]. For the same molecule, in series [4], the “Plasma Protein binding (PPB) Mouse” value came to 96.87%.
As for `C=CCn1c(=O)c2cnc(Nc3ccc(N4C[C@H]5CN(C)C[C@H]5C4)cc3)nc2n1-c1ccc2c(n1)C(O)(CC)C1(CC1)C2` (stereo partly shown) [Compound 28], in [7], the “T1/2 liver microsomes Monkey” value is 17.74 min. In addition, the IC50 in [1] was over 10000 nM; in series [2], 100 to 1000 nM; in [3], 1190 nM; in series [10], at most 5 nM; in series [5] it was 100 to 1000 nM; in series [6] it was 100 to 1000 nM. The “T1/2 liver microsomes Rat” value in [8] was found to be 30.9 min. Also, in series [4], the “Plasma Protein binding (PPB) Mouse” value is listed as 92.29%. In addition, the “T1/2 liver microsomes Dog” value in [11] was determined as 38.2 min. In [12], the “Plasma Protein binding (PPB) Rat” value worked out at 86.08%. The “T1/2 liver microsomes Human” value in series [13] stood at 29.95 min. Moreover, in [15], the “T1/2 liver microsomes Mouse” value stood at 51.65 min.
On to `C=CCn1c(=O)c2cnc(Nc3ccc(N4CCC5(CCN(C)CC5)CC4)cc3)nc2n1-c1ccc2c(n1)C(C)(O)C1(CC1)C2` (stereo not shown) [Compound 11], for which the IC50 in series [1] is over 10000 nM; in [2], 100 to 1000 nM; in series [3], 1460 nM; in [5] it was 100 to 1000 nM; in [6] it was 100 to 1000 nM. In addition, the “Plasma Protein binding (PPB) Mouse” value in series [4] is on record as 92.17%. Further, in series [14], the “Efflux Ration” value was 21.59. The “Papp A to B” value in series [14] was 0.41 10^−6 cm/s. The “Papp B to A” value in series [14] was 8.85 10^−6 cm/s.
Regarding `C=CCn1c(=O)c2cnc(Nc3ccc(N4CCC(N(C)C)CC4)c(C)c3)nc2n1-c1ccc2c(n1)[C@@](C)(O)C1(CC2)CC1` (single isomer, unassigned) [Compound 52a], in series [7], the “T1/2 liver microsomes Monkey” value turned out to be 14.22 min. Also, the IC50 in series [1] is 3830 nM; in [2], 100 to 1000 nM; in series [3], 480 nM; in series [5], 100 to 1000 nM; in series [6], 100 to 1000 nM. In addition, in [8], the “T1/2 liver microsomes Rat” value was determined as 31.42 min. Moreover, the “T1/2 liver microsomes Dog” value in [11] is reported as 22.8 min. Further, the “T1/2 liver microsomes Human” value in series [13] turned out to be 26.24 min. Further, the “T1/2 liver microsomes Mouse” value in series [15] is 96.19 min.
For the molecule `C=CCn1c(=O)c2cnc(Nc3ccc(N4CCN(C)CC4)cc3)nc2n1-c1ccc2c(n1)C(C)(O)C1(CC2)CC1` (stereo not shown) [Compound 6], the IC50 was 100 to 1000 nM in series [2], at most 5 nM in series [10], 1000 to 2000 nM in series [5] and 100 to 1000 nM in series [6]. Further, the “Plasma Protein binding (PPB) Mouse” value in [4] turned out to be 97.2%.
Turning to `[2H][C@]1(O)c2nc(-n3c4nc(Nc5ccc(N6CCC7(CCN(C)CC7)CC6)c(C)c5)ncc4c(=O)n3CC=C)ccc2CCC12CC2` [Compound 61b], the “Plasma Protein binding (PPB) Mouse” value in series [4] was 98.46%. Moreover, the “Plasma Protein binding (PPB) Rat” value in series [12] stood at 93.61%.

What is called IC50 is the midpoint of a concentration-inhibition curve. By Papp A→B is commonly meant how fast a substance crosses the layer from the apical side. The term Papp B→A denotes the apparent permeability from the basolateral to the apical side of a cell layer.
